Measurements as given in US20230381178A1, “METHODS FOR IMPROVING RENAL FUNCTION WITH A COMBINATION OF A BET BROMODOMAIN INHIBITOR AND A SODIUM DEPENDENT GLUCOSE TRANSPORT 2 INHIBITOR” (Resverlogix Corp., priority 2020, published 2023).

What was measured:
[1] = BETonMACE Phase 3 trial post-hoc analysis: eGFR (Cockcroft-Gault, serum creatinine) from baseline to last visit on treatment; type: in vivo, human
Procedure: Apabetalone (RVX-208) was evaluated in a recently completed clinical Phase 3 trial (BETonMACE; NCT02586155) for the effect on MACE in type 2 diabetes patients with low HDL cholesterol (below 40 mg/dL for males and below 45 mg/dL for females) and a recent acute coronary syndrome (ACS) (preceding 7-90 days). All patients received high intensity statin treatment or maximum tolerated statin treatment, which was 20-40 mg daily or a maximum daily dose of 40 mg for rosuvastatin or 40-80 mg daily or a maximum daily dose of 80 mg for atorvastatin.
Patients (n=2425) with ACS in the preceding 7 to 90 days, with type 2 diabetes and low HDL cholesterol (≤40 mg/dl for men, <45 mg/dl for women), receiving intensive or maximum-tolerated therapy with atorvastatin or rosuvastatin, were assigned in double-blind fashion to receive apabetalone 100 mg orally twice daily or matching placebo. Baseline characteristics include female sex (25%), myocardial infarction as index ACS event(74%), coronary revascularization for index ACS (76%), treatment with dual anti-platelet therapy (87%) and renin-angiotensin system inhibitors (91%), median LDL cholesterol 65 mg per deciliter, and median HbA1c 7.3%. The primary efficacy measure is time to first occurrence of cardiovascular death, non-fatal myocardial infarction, or stroke. The study enrolled 2425 patients and the MACE outcome population consisted of 2418 patients.
In the BETonMACE clinical study, a total of N=298 patients (N=150 in RVX-208 treatment group and N=148 in placebo treatment group) were administered an SGLT2 inhibitor (empagliflozin, dapagliflozin, or canagliflozin) in addition to RVX-208 with specified statin therapy (atorvastatin and rosuvastatin) and other guideline-defined treatments. Specifically, a total of 150 patients received both RVX-208 and an SGLT2 inhibitor; a total of 148 received an SGLT2 inhibitor, but no RVX-208; a total of 1062 received RVX-208, but no SGLT2 inhibitor; a total of 1058 received neither RVX-208 or an SGLT2 inhibitor.
Patients who were randomized and received at least one dose of SGLT2 treatment while actively receiving study drug (RVX-208 or placebo) were counted as those receiving a combination of SGLT2 treatment with either RVX-208 or placebo. Patients receiving more than one drug therapy within the SGLT2 inhibitor class were counted only once based upon whichever drug therapy patients continued taking at the end of treatment with study drug (RVX-208 or placebo). In cases where patients were receiving more than one drug therapy within the SGLT2 inhibitor class at the end of treatment with study drug, whichever SGLT2 inhibitor therapy was received for longer was counted.
Estimated glomerular filtration rate (eGFR) was calculated by the central lab using serum creatinine values and the Cockcroft-Gault formula. Serum creatinine was collected as part of the chemistry panel at the following time points: baseline, week 24, week 52, week 76, week 100, and last visit on treatment (LVT). The Cockcroft-Gault formula requires the input of an individual's age, sex, and weight. The last visit on treatment (LVT) timepoint represented the longest study exposure duration for patients receiving RVX-208 or placebo with and without SGLT2 inhibitors and is the focus of this analysis. The median time to LVT (and study drug exposure) for patients with a baseline and LVT measurements for eGFR administered an SGLT2 inhibitor (N=298) was 742 days (2.03 years). For the patients treated with a SGLT2 inhibitor and RVX-208 (N=150), the median time to LVT was 748 days (2.05 years) and for the patients treated with a SGLT2 inhibitor and received placebo (N=148), the median time to LVT was 734 days (2.01 years). No statistical difference was observed between the duration of study drug exposure, indicating a balance was observed between treatment groups. At the LVT timepoint, a total of N=121 patients in the apabetalone treatment group and N=122 patients in the placebo group had eGFR measurements. […]

[2] = patients with established cardiovascular disease and eGFR<60 mL/min/1.73 m^2; monotherapy; p=0.04 vs. baseline (Kulikowski et al 2017); cited from earlier work
[3] = BETonMACE, T2DM patients with a recent ACS (Ray et al. 2020); cited from earlier work

COc1cc(OC)c2c(=O)[nH]c(-c3cc(C)c(OCCO)c(C)c3)nc2c1 [RVX-208, 2-(4-(2-hydroxyethoxy)-3,5-dimethylphenyl)-5,7-dimethoxyquinazolin-4(3H)-one]
effect on eGFR / renal function ([1]; BETonMACE post-hoc, T2DM patients with a recent ACS): not able to increase median or mean eGFR levels
median eGFR at last visit on treatment (LVT) ([1]; T2DM patients with recent ACS, on statin, RVX-208 100 mg orally twice daily where given, at LVT (median about 2 years)): 96 mL/min
median eGFR at baseline ([1]; T2DM patients with recent ACS, on statin, at baseline): 97 mL/min
median change of eGFR from baseline to LVT ([1]; T2DM patients with recent ACS, FIG. 3): −3.2 mL/min/1.73 m^2
mean change of eGFR from baseline to LVT ([1]; T2DM patients with recent ACS, FIG. 4): −3.3 mL/min/1.73 m^2
median eGFR slope from baseline to LVT ([1]; eGFR difference baseline to LVT divided by number of treatment days, monotherapy groups): −0.004
increase in eGFR [2]: 3.4%
effect on eGFR versus placebo [3]: did not demonstrate the ability to statistically improve eGFR versus placebo
